The record followed here is patent publication US20180188266A1, “Characterization of Type 1 Collagen Synthesis By Fluorescence Imaging and Related Drug Screening Technique” (Florida State University Research Foundation, Inc., priority 2017, published 2018).

Each structure is given as a SMILES string.

This assay concerns Type 1 collagen synthesis. Briefly: Confocal fluorescence imaging of Type 1 collagen synthesis in cells expressing COLa1(I)/mTagBFP2 + WT COLa2(I)/mEmerald. In kind it is cell-based. The conditions noted are these: fixed human lung fibroblasts expressing COLa1(I)/mTagBFP2+WT COLa2(I)/mEmerald; treated for 24 hours vs untreated cell. Here is the method:
Three combinations of adenoviruses were used: • COLα1(I)/mTagBFP2 and WT COLα2(I)/mEmerald: images normal, regulated Type 1 collagen synthesis; • COLα1(I)/mTagBFP2 and MUT COLα2(I)/mEmerald: images collagen synthesis without regulation; and • COLα1(I)/mTagBFP2 and COLα2(I)/mEmeraldΔC: images absence of productive synthesis.
Adenoviruses were mixed in a ratio determined by the viral titer and added to human lung fibroblasts in culture. After 48 hours the cells were either fixed in 3.7% formalin, mounted on glass slides and imaged or they were directly imaged as live cells.
Confocal imaging of cells was performed either by Zeiss LSM 880 confocal microscope or Nikon Eclipse Ti laser spin disk confocal microscope in blue and green channels.
The drug used in the confocal microscopy imaging experiments was compound 60D17 of U.S. Pat. No. 8,729,090, which is incorporated by reference. Compound 60D17 has the following formula.

For the compound `COC(=O)CNC(=O)c1cc2c(=O)n3cccc(C)c3nc2n1C` [compound 60D17], the “Effect on Type 1 collagen biosynthesis (confocal images, FIG. 4)” value is recorded as “perturbed”.
